Measurements reported in patent US20240201205A1, “METHOD FOR DETECTING NEUROLOGICAL DISEASES USING SUPRAMOLECULE POLYMER THERAPEUTICS” (The Regents of the University of California, priority 2022, published 2024).

Legend:
[1] = tested on: Alzheimer's disease tau paired-helical filaments (PHFs); test: Cryo-EM co-structure of GTP-1 with Alzheimer's disease tau paired-helical filaments; assay type: binding, human; conditions: AD patient filaments
Experimental: Samples were incubated with 20 uM GTP-1 prior to vitrification. […] The micrograph images and their 2D classification reveal well-resolved filaments primarily in the PHF conformation, with crossover distances ranging from 700-800 Å. A minor population of straight filaments (SF) was also identified; however, further structural characterization was not feasible due to limited abundance. […] The PHF structure is comprised of two protofilaments related by two-fold symmetry with a 2.37 Å rise and 179.45° twist, consistent with previously reported structures of PHFs prepared from AD brains (13, 15).
Tau PHF filament purification. Filament purification was based on Fitzpatrick et al., 2017^1. […]
Cryo-EM sample preparation and data collection. […] For the tau PHF, 3 μL of purified filaments mixed with GTP-1 was added to a glow-discharged 200 mesh 1.2/1.3R Au Quantifoil grid for 10 seconds before blotting for 2 seconds, and then a second 3 μL aliquot was added for 3 seconds and blotted for 1 second before being plunge frozen in liquid ethane using a FEI Vitrobot Mark IV (Thermo Fisher Scientific). For the synuclein ligands, 3 μL of purified filaments mixed with compound was added to a 200 mesh 1.2/1.3R Au Quantifoil grid coated with a 2 nm thick layer of carbon, which had not been glow discharged. […]

[2] = target: T1, α-synuclein fibrils isolated from an MSA patient sample (Homo sapiens, UniProt P37840); test: Cryo-EM co-structures of compounds with α-synuclein fibrils from MSA patient; assay type: binding; conditions: fibrils from MSA patient sample; 20 μM ligand
T1 construct: fresh-frozen tissue from the cerebellum of patients clinically and neuropathologically diagnosed with MSA; from tissue; host or cells: cerebellum of MSA patients (sarkosyl-insoluble filament preparation)
Experimental: MSA filament purification. Filament purification was based on Schweigenhauser et al., 2020^2. Briefly, 1-2 g of fresh-frozen tissue from the cerebellum of patients clinically and neuropathologically diagnosed with MSA was homogenized at 20 mL/g of tissue in 10 mM Tris-HCl (pH 7.4), 800 mM NaCl, 1 mM EGTA, and 10% sucrose. A final concentration of 1% N-laurosarcosinate (w/v) was added to the homogenates, and these mixtures were incubated at 37° C. for 30 minutes. Homogenates were then centrifuged at 10,000 g for 10 minutes, and the supernatant was kept and then centrifuged at 100,000 g for 20 minutes. The pellets were resuspended at 500 μL/g of frozen tissue in 10 mM Tris-HCl (pH 7.4), 800 mM NaCl, 1 mM EGTA, and 10% sucrose. This was followed by another centrifugation at 3,000 g for 5 minutes. The supernatant was kept and diluted threefold with 50 mM Tris-HCl (pH 7.4), 150 mM NaCl, 10% sucrose, and 2% sarkosyl, followed by another centrifugation at 150,000 g for 1 hour. The final pellet resuspended in 30 mM Tris-HCl (pH 7.4) at a concentration of 100 μL/g frozen tissue.
Cryo-EM sample preparation and data collection. Purified frontal cortex and cerebellum tissue was incubated with 20 μM ligand for 45 minutes prior to freezing. For the tau PHF, 3 μL of purified filaments mixed with GTP-1 was added to a glow-discharged 200 mesh 1.2/1.3R Au Quantifoil grid for 10 seconds before blotting for 2 seconds, and then a second 3 μL aliquot was added for 3 seconds and blotted for 1 second before being plunge frozen in liquid ethane using a FEI Vitrobot Mark IV (Thermo Fisher Scientific). For the synuclein ligands, 3 μL of purified filaments mixed with compound was added to a 200 mesh 1.2/1.3R Au Quantifoil grid coated with a 2 nm thick layer of carbon, which had not been glow discharged. After 30 seconds, grids were blotted for 7.5 seconds at room temperature and 100% humidity. Grids were plunge frozen in liquid ethane using a FEI Vitrobot Mark IV. […] A defocus range of 0.8 to 1.8 μm was used with a total exposure time of 2.024 seconds fractionated into 0.025 seconds subframes. The total dose for each movie was 46 electrons/Å^2. Movies were motion-corrected using MotionCor2^3 in Scipion^4 and were Fourier cropped by a factor of 2 to a final pixel size of 0.834 Å per pixel.
Image processing. All image processing was done in RELION 4^5, and the same workflow was used for each dataset. Dose-weighted summed micrographs were imported into RELION 4. The contrast transfer function was estimated using CTFFIND-4.1^6. Filaments were manually picked and then segments were extracted with a box size of 900 pixels downscaled to 300 pixels. Contaminants and segments contributing to straight filaments were separated out using reference-free 2D class averaging. The remaining segments were re-extracted with a box size of 288 pixels without downscaling. An initial model was generated from a cylinder in RELION. One or more rounds of 3D classification with image alignment were performed, with helical rise and […] parameters fixed to eliminate obvious junk particles. One or more rounds of 3D auto-refinement was run using the best map from 3D classification low-pass filtered to 10 Å, allowing rise and twist parameters to vary. Maps were sharpened using the standard post-processing procedures in RELION.
Model building, refinement, and analysis. Prior to ligand placement, a single strand of a previously solved MSA or tau PHF filament structure^2 (PDB: 6XYQ) was refined against the density using Phenix^7. Refinement of the ligand binding pocket was done in COOT^8. Ligands were placed by hand in the density using Chimera^9. This model was then translated to give a stack spanning 5 rungs.

Row | SMILES | binding site on tau PHF [1] | binding to α-synuclein fibrils (cryo-EM co-structure) [2]
1 | FCCC1CCN(c2ccn3c(n2)nc2ccccc23)CC1 [GTP-1] | bound to a solvent exposed cleft (residues 351-360) | –
2 | CNc1nc(=O)n(-c2nc(-c3cccc(C)c3)oc2-c2ccc(Cl)c(F)c2)cc1F [Compound 83, 1-(5-(4-chloro-3-fluorophenyl)-2-(m-tolyl)oxazol-4-yl)-5-fluoro-4-(methylamino)pyrimidin-2(1H)-one] | – | bound to fibrils isolated from an MSA patient sample
3 | CNc1nc(=O)n(-c2nc(-c3cc(C)cc(C)n3)oc2-c2ccc(F)c(F)c2)cc1F [compound 294] | – | bound to fibrils isolated from an MSA patient sample
